{"source": "ChEMBL document CHEMBL4665680", "about": "“Drug Induced Liver Injury (DILI). Mechanisms and Medicinal Chemistry Avoidance/Mitigation Strategies” (J Med Chem, 2020)"}
{"experiment": "Toxicity in po dosed human assessed as maximum daily dose", "type": "organism-based", "settings": "in vivo", "units": {"Activity": "mg"}}
{"smiles": "CN(CCOc1ccc(CC2SC(=O)NC2=O)cc1)c1ccccn1", "note": "(stereo not drawn) [ROSIGLITAZONE]", "Activity": 8}
{"smiles": "CCCCc1nc(Cl)c(CO)n1Cc1ccc(-c2ccccc2-c2nn[nH]n2)cc1", "note": "[LOSARTAN]", "Activity": 100}
{"smiles": "CCc1nn(CCCN2CCN(c3cccc(Cl)c3)CC2)c(=O)n1CCOc1ccccc1", "note": "[NEFAZODONE]", "Activity": 600}
{"smiles": "CCCN(CCC)C(=O)Cc1c(-c2ccc(Cl)cc2)nc2ccc(Cl)cn12", "note": "[ALPIDEM]", "Activity": 150}
{"smiles": "CC(=O)N1CCN(c2ccc(OCC3COC(Cn4ccnc4)(c4ccc(Cl)cc4Cl)O3)cc2)CC1", "note": "(stereo not drawn) [KETOCONAZOLE]", "Activity": 400}
{"smiles": "CCc1ccc(CCOc2ccc(CC3SC(=O)NC3=O)cc2)nc1", "note": "(stereo not drawn) [PIOGLITAZONE]", "Activity": 45}
{"smiles": "CC(C)(C)NC(=O)[C@@H]1C[C@@H]2CCCC[C@@H]2CN1C[C@@H](O)[C@H](Cc1ccccc1)NC(=O)[C@H](CC(N)=O)NC(=O)c1ccc2ccccc2n1", "Activity": 2000}
{"smiles": "COC(=O)[C@H]1[C@H]2C[C@@H]3c4[nH]c5cc(OC)ccc5c4CCN3C[C@H]2C[C@@H](OC(=O)c2cc(OC)c(OC)c(OC)c2)[C@@H]1OC", "note": "[RESERPINE]", "Activity": 0.5}
{"smiles": "Cc1c(C)c2c(c(C)c1O)CCC(C)(COc1ccc(CC3SC(=O)NC3=O)cc1)O2", "note": "(stereo not drawn) [TROGLITAZONE]", "Activity": 600}
{"smiles": "COC(=O)C1=C(C)NC(C)=C(C(=O)OCCN(C)Cc2ccccc2)C1c1cccc([N+](=O)[O-])c1", "note": "(stereo not drawn) [NICARDIPINE]", "Activity": 120}
{"smiles": "COc1ccc(Cl)cc1C(=O)NCCc1ccc(S(=O)(=O)NC(=O)NC2CCCCC2)cc1", "note": "[GLYBURIDE]", "Activity": 20}
{"smiles": "CCCCC1=NC2(CCCC2)C(=O)N1Cc1ccc(-c2ccccc2-c2nnn[nH]2)cc1", "note": "[IRBESARTAN]", "Activity": 300}
{"smiles": "CS(=O)(=O)CCNCc1ccc(-c2ccc3ncnc(Nc4ccc(OCc5cccc(F)c5)c(Cl)c4)c3c2)o1", "note": "[LAPATINIB]", "Activity": 1500}
